Data as given in patent US20140329776A1, “Mitochondria-Targeted Antioxidants for Treatment of Age-Related Brain Disorders” (MITOTECH S.A., priority 2011, published 2014).

Tests used:
[1] = system: mROS; conditions: in vivo; cited from earlier work
[2] = system: AD patients; conditions: human, in vivo; cited from earlier work
[3] = system: Wistar rats; assay: limb-placing test after focal open severe brain trauma; type: in vivo, rat; conditions: 100 nmol/kg i.p. 1 h after trauma then daily for four days, 12-score scale, mean±SEM
Protocol: (§1) In this study, we, the inventors, employed our modification of the earlier used model of focal open severe brain trauma in rats. The study was performed on male Wistar rats with body weight of 180-250 g. Before the surgery, the animals were anesthetized by an intraperitoneal injection of 3% chloral hydrate (330 mg/kg). To create the trauma, the left frontal part of the skull was trepanized above the sensorimotor cortex zone, and a movable Teflon piston 4 mm in diameter with depth of insertion of 2.5 mm was placed into it; this piston was struck from the height of 10 cm with a 50-g load sliding along a directing rail. Localization of the sensorimotor cortex zone was determined based on data described in [14].
SkQR1 (100 nmol/kg) was injected intraperitoneally 1 h after the trauma and then daily in the same dose during the following four days.
Behavioral “limb-placing test” was performed 24 h before the operation and then on the third and seventh days after the trauma. […] The resulting score on this scale is determined as the sum of points obtained in six tests assessing the response of the forelimbs and hindlimbs to tactile and proprioceptive stimulation in the presence of obvious reflexes. […]
The results are expressed as the mean±standard error of mean. […] The statistical significance of differences in the damaged volumes was assessed using Student's t-test at the significance level of p<0.05.

[4] = system: hippocampal slice neurons; assay: LTP of hippocampal slices, nootropic activity; conditions: administered in vivo; FIG. 15
Excerpt: FIG. 15 is a bar graph showing the nootropic activity of preferred SkQ mitochondria-targeted antioxidants of the invention when administered to animals in vivo.

[5] = system: Wistar rats; assay: damaged focal volume (morphometry) after focal open severe brain trauma; type: in vivo, rat; conditions: seventh day after trauma; 100 nmol/kg i.p. 1 h after trauma then daily for four days; mean±SEM
Protocol: as §1, with “[14]. […]” for “[14].”
A magnetic resonance imaging (MRI) study was performed as described in [15] using a BioSpec 70/30 (Bruker, Germany) with magnetic field induction of 7 T and gradient of 105 mT/m. The damaged focal volume was determined morphometrically on the 7th day after the trauma. […] The volume of the lesion was determined as a cylinder with V=ΣSn×d, where d is thickness of the section pair (200 μm); Sn is the area of the lesion in the section in mm2; Σ is the sum of volumes of ischemic damage in the sections using an Image J program (Bethesda Md., USA).
The results are expressed as the mean±standard error of mean. […]

[6] = system: hippocampal slice neurons; assay: long-term potentiation (LTP) of hippocampal slices treated with Aβ after in vivo treatment; design: species or system rat; conditions: for neuroprotective activity based on LTP signal, model of Alzheimer disease: administered in vivo to rats prior to extraction of hippocampus, beta-amyloid treatment
Protocol: FIG. 3B is a graphic representation showing the LTP caused by in vitro addition of Aβ, where the decay of LTP of hippocampal slice neurons characterized by a decrease of pop-spike amplitude (%) in a hippocampal slice treated with Aβ.
SkQR1 Aβ was added 15 min before the LTP induction with high-frequency electric stimulation (arrow). The decay of LTP (i.e. decrease of pop-spike amplitude) in a hippocampal slice treated with Aβ can be prevented by SkQR1 treatment.
FIG. 16 is a bar graph comparing the neuroprotective effects of preferred SkQ mitochondria-targeted antioxidants of the invention when administered in vivo in a model of Alzheimer disease.
As a model of cell memory, an electric response of a hippocampal slice (long-term potentiation, LTP) was used (Malenka, et al., Science 285:1870-1874 (1999)). A direct experiment was performed showing the prevention of Aβ toxicity in hippocampus by in vivo treatment of rats with 1 μmol SkQR1 per kg of body weight. The compound was injected intraperitoneally into the animal 24 hours before hippocampal slices were obtained to measure LTP. Some slices were pretreated with Aβ for 15 minutes. As is seen in FIG. 3B, Aβ impaired LTP relative to untreated control.
FIG. 16 provides a comparison of the neuroprotective effects of SkQ1, SkQR1 and C12TPP based on the LTP signal in neurons of hippocampal slices. Ab stands for beta-amyloid treatment. […] All SkQs and C12TPP were administered in vivo to rats prior the extraction of hippocampus.

[7] = system: rats after transient middle cerebral artery occlusion; assay: limb-placing test after transient middle cerebral artery occlusion; type: in vivo, rat; conditions: after injection of SkQR1; first day after induction of ischemia
Protocol: Behavioral tests were performed 1 day before the induction of ischemia and on the first day after the induction of ischemia. The limb-placing test was used to evaluate the neurological deficit estimated by a conventional 14-point scale with modifications as described in Jolkkonen, et al., Eur. J. Pharmacol., 400:211-219 (2000)). The test had 7 limb-placing tasks that assess the sensorimotor integration of forelimb and hindlimb responses to tactile and proprioceptive stimulation.

[8] = system: rats after transient middle cerebral artery occlusion; assay: transient middle cerebral artery occlusion, brain infarct volume (TTC staining); type: in vivo, rat; conditions: single intraperitoneal injection 0.5-2 μmol/kg body weight; 24 h before 60 min occlusion; studied 24 h after occlusion
Protocol: Several effects of SkQs were observed when brain functions were studied. Where indicated, 1 μmol SkQR1 per kg of body weight was injected intraperitoneally 24 h before the 60 min occlusion of the artery. The ischemia effect was studied 24 h after the occlusion (Plotnikov, et al., Biochemistry (Mosc) 75:145-150 (2010) here and below, p<0.05 for SkQ effect).

In the case of `COC1=C(OC)C(=O)C(CCCCCCCCCC[P+](c2ccccc2)(c2ccccc2)c2ccccc2)=C(C)C1=O` [MitoQ], the “outcome of targeting the antioxidant to quench mROS” value [1] is given as “failed”.

For `Cc1c(C)c2c(c(C)c1O)CC[C@@](C)(CCC[C@H](C)CCC[C@H](C)CCCC(C)C)O2` [α-tocopherol], the “efficacy in treating AD patients” value [2] is given as “ineffective” and the safety [2] is given as “safe”.

In the case of `CC/N=c1/cc2oc3cc(NCC)c(C)cc3c(-c3ccccc3C(=O)OCCCCCCCCCCC3=CC(=O)C(C)=C(C)C3=O)c-2cc1C` [SkQR1, plastoquinonyl decylrhodamine 19], the “limb-placing test score, right limbs” value ([3]; seventh day after trauma) is reported as 7.4±0.8 points, the “limb-placing test score, right limbs” value ([3]; third day after trauma) is reported as 6.6±0.8 points and the “LTP signal (nootropic activity)” value [4] is reported as “clearly stimulates LTP”. The damaged volume [5] was 15±4 mm3, the “neuroprotective activity based on LTP signal, model of Alzheimer disease” value ([6]; FIG. 16) was “neuroprotective activity” and the “impairment (decay) of LTP caused by Aβ” value ([6]; in vivo treatment (SkQR1 1 μmol/kg i.p. 24 hours before slices), Aβ added to slices for 15 min) was “prevented such impairment”. The “behavioral defects, limb-placing test” value [7] was “decrease” and the “infarct volume in brain” value [8] was “strongly decreased”.

For `O=C(O)CCCCC1CCSS1` (stereo not drawn) [α-lipoate], the “efficacy in treating AD patients” value [2] is given as “ineffective” and the safety [2] is given as “safe”.

For `O=C1O[C@H]([C@@H](O)CO)C(O)=C1O` [ascorbate], the safety [2] is given as “safe”.

With `CCCCCCCCCCCC[P+](c1ccccc1)(c1ccccc1)c1ccccc1` [C12TPP] the “neuroprotective activity compared to SkQ” value ([6]; FIG. 16) was “lower but still sufficient” and the “neuroprotective activity based on LTP signal, model of Alzheimer disease” value ([6]; FIG. 16) was “neuroprotective activity”.
